Columns and labels:
[1] = tested on: PSC muscarinic receptors (mAChRs); details: SOD1 mice, 15 mg/kg for 30 days; SOL muscle
Excerpt: Mice were then sacrificed, and muscles dissected with their innervation and placed in a physiological recording chamber. We performed Ca^2+ imaging on the SOL muscle to evaluate PSCs synaptic detection of neurotransmission elicited by motor nerve stimulation (50 Hz-5 sec) or local applications of the mAChRs agonist muscarine for the treated and the placebo groups.
Preparations of SOL muscles and their innervation were dissected and pinned in a Sylgard-coated experimental chamber filled with an oxygenated Ree's solution (in mM, all Sigma), as follows: 110 NaCl, 5 KCl, 1 MgCl2, 25 NaHCO3, 2 CaCl2, 11 glucose, 0.3 glutamic acid, 0.4 glutamine, 5 BES (N,N-Bis(2-hydroxyethyl)-2-aminoethanesulfonic acid sodium salt), 0.036 choline chloride, and 4.34×10^−7 cocarboxylase. Nerve-muscle preparations were incubated for 90 min (2×45 min) in a preoxygenated saline solution containing 10 μM fluo-4AM (Invitrogen) and 0.02% pluronic acid (Invitrogen). After the loading, nerve muscle preparations were constantly perfused with a warm (26-28° C.) oxygenated Ree's solution (95% O2, 5% CO2). Basel level of fluorescence was always set within the same range of arbitrary units, using the same software and hardware settings. Changes in fluorescence were measured over PSC soma and expressed as follows: % ΔF/F=(F-Frest)/Frest×100. Experiments were discarded when focus drift occurred. […]

SOD1^G37R mice [2] = experiment: EDL contractile force with muscle force transducer (force-frequency curve, contractile capacity ratio); format: in vivo, mouse
Excerpt: To investigate this, we used a musde force transducer to measure the force generated by EDL muscles elicited by stimulation of the motor nerve and/or by the direct muscle stimulation (FIG. 5A). With this system, stimulation of the motor nerve at various frequencies elicits muscle contraction through NMJ efficacy, reflecting the strength of contractile fibers associated with innervated NMJs only. Muscle stimulation, on the contrary, depolarizes all muscle fibers and reflect maximal twitch force of all the muscle, independent of the innervation status.
These values represent respectively 55% and 30% of the WT mean twitch force value (FIG. 5B; Dari N=8, Placebo N=8; p<0.01, Repeated Two-way ANOVA). Contractile forces generated differed between the two groups from 70 Hz to 300 Hz (FIG. 5B; Dari N=8, Placebo N=8; p<0.05, Two-way ANOVA, Bonferroni post hoc test). […] This is indicative of the preservation of the fast-twitch properties of the EDL (FIG. 5C; Dari N=8, Placebo N=8; p<0.05 et p<0.01, unpaired t-tests at each frequency).
We next determined the proportion of the muscle capacity that is used by the neuromuscular system upon nerve stimulation. This was expressed as the contractile capacity ratio calculated as follow: […]
The EDL and SOL nerve-muscle preparations were attached vertically to a fixed force transducer (model 402 A-500 mN, Aurora Scientific Inc.) using surgical threads. The preparations were attached at the tendons level to the transducer at one extremity and to an adaptable hook at the opposite extremity. A platinum reference electrode was then juxtaposed ot the muscle, positioned near an extremity of the muscle, close to a tendon. To stimulate the muscle, a second platinum electrode was juxtaposed at the other extremity of the muscle. To elicit muscle contractions from motor nerve and neuromuscular activity, the tibial nerve (SOL) or the deep peroneal nerve (EDL) motor nerve was suctioned into an electrode made of PE tubing and filled with Ringer's solution. […] Neuromuscular contractile basal force responses were elicited by a single supra-maximal square-wave of 500 mV, 0.1 ms pulse imposed on the motor nerve. Muscle contractile basal force responses were elicited by square pulse stimulation of 15 V, 1 ms. Optimal muscle length was determined by gradually stretching the muscle until maximal contractile force output was attained.
Force-frequency curve: Nerve and muscle stimulations were performed to generate a standard force-frequency curve. Alternate nerve and muscle stimulations were performed at various frequencies (5 Hz, 10 Hz, 20 Hz, 30 Hz, 40 Hz, 50 Hz, 60 Hz, 70 Hz, 80 Hz, 90 Hz, 100 Hz, 120 Hz, 140 Hz, 160 Hz, 180 Hz, 200 Hz, 250 Hz and 300 Hz) and the force generated monitored. There was a 2-minute rest period between each stimulation.

[3] = Darifenacin level in blood; format: in vivo; details: SOD1 mice after oral treatment; levels consistent with pre-clinical data; data not shown
Procedure: We opted for the dosage at 10 mg/kg since the primary goal is to restore PSCs activity by dampening their muscarinic activity close to WT levels. […] These were both essential steps to pursue the study.

SOD1^G37R mice [4] = experiment: Rotarod acceleration protocol; format: in vivo, mouse
Procedure: Third, the motor performance, balance and coordination, were measured using a standard acceleration protocol on the Rotarod (FIG. 8A), which is known to reveal ALS motor deficits as disease progresses.
Motor coordination, strength and balance were assessed using a rotarod (TSE Rotarod, TSE Systems Gmbh, Germany). Animals were placed onto a rotating wheel at a starting speed of 4 rpm, increasing to 40 rpm in 300 seconds. Mice had two attempts per session to remain on the rotarod during the acceleration protocol, and the longest latency to fall was counted.

SOD1^G37R mice [5] = experiment: Body weight loss; format: in vivo, mouse; details: at P520; treatment from disease onset; N=21
Excerpt: To this end, we monitored the changes in the body weight of the animals, a metric that is directly related to the progression of the disease and survival whereby animals present an important gradual body weight loss after symptoms onset.
The pre-clinial trial design was made according to guidelines for preclinical animal research in ALS/MND [35]. Male mice from the SOD1^G37R background and their WT littermates were included in the preclinical study. Mice were randomly assigned to the experimental or the placebo group. Treatment, behavior monitoring, experiments and results analysis were done blindly. Standard ALS behavioral measurements were performed biweekly to measure disease progression in the various study groups. This includes rotarod test. grip strength measurements, weight measurements and tail suspension test to assess hindlimb extension reflex.

## NC(=O)C(c1ccccc1)(c1ccccc1)[C@@H]1CCN(CCc2ccc3c(c2)CCO3)C1 [darifenacin]
[1]
  PSCs muscarinic activation: greatly abolished
SOD1^G37R mice [2]; 5 Hz-300 Hz, pre-onset treatment P400 until P520, N=4
  peak EDL muscle force, nerve or muscle stimulation, vs placebo: no difference
SOD1^G37R mice [2]; force-frequency protocol 5 Hz-300 Hz, treatment from disease onset, N=8
  EDL twitch force, nerve stimulation: 138.0±9.1 mN
SOD1^G37R mice [2]; nerve stimulation, treatment from disease onset
  EDL twitch force as % of the WT mean twitch force value: 55%
SOD1^G37R mice [2]; pre-onset treatment from P400
  animals discarded for early onset of forelimb paralysis, final stage at P490: two
[3]
  darifenacin in the blood: detected in the blood
SOD1^G37R mice [4]; at P520 and P525, treatment from disease onset, N=22
  Rotarod latency to fall vs placebo: significantly higher score
SOD1^G37R mice [4]; late symptomatic stage, data not shown
  share of group still able to stand for several seconds on the rotating rod: more than half
SOD1^G37R mice [5]
  body weight loss: 20.0±1.9%
